Data: patent publication US7387807B2, “Topical composition comprising feverfew” (Johnson & Johnson Consumer France, SAS, Roc Division, priority 1999, dated 2008)

What was measured:
Format in all cases: in vivo
Albino male CD-1 mice [1] = test: Phorbol ester (TPA) induced mouse ear edema; details: 0.1% topical, 20 μL immediately after TPA; 5.5 hours
Description: The following experiments were carried out to test the effect of feverfew and substantially parthenolide-free feverfew in a phorbol ester PITA) induced edema assay. […] Albino male CD-1 mice, 7-9 weeks old, were used. A 0.005% (w/v) TPA solution was made in acetone. A 20 μL volume of this TPA solution was applied to the dorsal left ear of the mouse. Test compounds were applied immediately to the left ear (20 μL) after TPA in a 70% ethanol/propylene glycol vehicle. The right ear was not treated. The mice were sacrificed by CO2 inhalation (5.5 hours after TPA), the left and right ears were removed and a 7 mm biopsy was removed from each ear and weighed. The difference in biopsy weights between the right and left ear was calculated.

human volunteers [2] = test: Prevention of trauma (stratum corneum stripping) induced erythema, human study; details: applied twice daily for 2 days before stripping, total 2 hour period, compared to the vehicle
Description: Test product was applied to the ventral side of the forearm twice daily for 2 consecutive days. […] Chromameter measurements were made prior to stripping and at 0.5, 1, 1.5 and 2 hours posts tripping. The Colorimetric Erythema Index (CEI) was calculated for each time point. For the total 2 hour period, and compared to the vehicle, the following reductions in erythema were obtained;

Albino male CD-1 mice [3] = test: Oxazolone contact hypersensitivity, mouse ear; details: 0.1% topical, 20 μL to ear 1 hour after challenge; ear weight at 24 hours
Description: The following experiments were carried out to test the effect of feverfew and substantially parthenolide-free feverfew in a contact […] assay. In this assay, the compositions of the invention were evaluated against hydrocortisone, a steroid known to inhibit contact hypersensitivity. Albino male CD-1 mice, 7-9 weeks old, were induce on the shaved abdomen with 50 μL of 3% oxazolone in acetone/corn oil Day 0). On Day 5, a 20 μL volume of 2% oxazolone in acetone was […] to the dorsal left ear of the mouse. […] The right ear was not treated. The mice were sacrificed by CO2 inhalation 24 hours after the oxazolone challenge, the left and right ears were removed and a 7 mm biopsy was taken from each ear and weighed. The difference in biopsy weights between the right and left ear was calculated. Antiinflammatory effects of compounds are evident as an inhibition of the increase in ear weight.

human volunteers [4] = test: Prevention of UVB induced erythema, human study; details: 2 mg/cm^2 twice daily for 2 days before 2MED UVB
Description: Test product was applied to 5 different locations on the volar forearm twice daily for 2 consecutive days (2 mg/cm^2). The sites were exposed to 2MED UVB. Chromameter measurements were made prior to irradiation and at 18, 24, 42 and 48 hours post irradiation. The Colorimetric Erythema Index (CEI) was calculated for each time point. The following reductions in erythema were obtained: […]

human volunteers [5] = test: Treatment of UVB induced erythema, human study; details: 2 mg/cm^2 immediately after 2MED UV and 5 and 8 hours later
Description: Ten healthy volunteers were irradiated with 2MED UV light on five distinct spots of the volar forearms. Test product was applied (2 mg/cm^2) on the irradiated sites immediately after irradiation, and 5 and 8 hours later. Erythema scores were measured before irradiation and 1, 4, 7 and 24 hours later. The following reductions in erythema were obtained: […]

human volunteers [6] = test: Treatment of trauma (stratum corneum stripping) induced erythema, human study; details: applied for 2 hours immediately after stripping, total 2 hour period, compared to the vehicle
Description: Test product was applied to the ventral side of the forearm for 2 hours, immediately after stripping. Chromameter measurements were made prior to stripping and at 0.5, 1, 1.5 and 2 hours post stripping. The Colorimetric Erythema Index (CEI) was calculated for each time point. For the total 2 hour period, and compared to the vehicle, the following reductions in erythema were obtained: […]

Albino male CD-1 mice [7] = test: Arachidonic acid induced ear edema; details: 20 μl immediately after AA, 1 hour
Description: In this in vivo model, feverfew's ability to reduce arachidonic acid induced edema was compared to the known cycloxygenase/lipoxgenase inhibitor tepoxalin. Albino male CD-1 mice, 7-9 weeks old, were used. A 20% (w/v) arachidonic acid (AA) solution was made in acetone. A 20 μl volume of the AA was applied to the dorsal left ear of the mouse. Test compounds (20 μl) were applied immediately to the left ear after AA in a 70% ethanol/30% propylene glycol vehicle. The right ear was not treated. The mice were sacrificed by CO2 inhalation 1 hour after AA, the left and right ears were removed and a 7 mm biopsy was removed from each ear and weighed. The difference in biopsy weights between the right and left ear was calculated. Antiinflammatory effects of compounds are evident as an inhibition of the increase in ear weight.

C[C@@H]1C[C@H]2[C@@H]3CCC4=CC(=O)C=C[C@]4(C)[C@@]3(F)[C@@H](O)C[C@]2(C)[C@@]1(O)C(=O)CO [Dexamethasone]
TPA induced ear edema, inhibition of the increase in ear weight, Study 2 (Albino male CD-1 mice [1]): 97.2

C[C@]12CCC(=O)C=C1CC[C@@H]1[C@@H]2[C@@H](O)C[C@@]2(C)[C@H]1CC[C@]2(O)C(=O)CO [Hydrocortisone]
Reduction of Erythema (%) (human volunteers [2]; 0.1%): 10%
Reduction of Erythema (%) (human volunteers [2]; 1%): 19%
Oxazolone contact hypersensitivity % Inhibition, Study 1 (Albino male CD-1 mice [3]): 96.9%
Oxazolone contact hypersensitivity % Inhibition, Study 2 (Albino male CD-1 mice [3]): 87.6%
Oxazolone contact hypersensitivity % Inhibition, Study 3 (Albino male CD-1 mice [3]): 91.0%
Reduction of Erythema (%) (human volunteers [4]; 0.1%): 2.5%
Reduction of Erythema (%) (human volunteers [4]; 1%): 5.7%
Reduction of Erythema (%) (human volunteers [5]; 0.1%): 3.2%
Reduction of Erythema (%) (human volunteers [5]; 1%): 17.7%
TPA induced ear edema, inhibition of the increase in ear weight, Study 1 (Albino male CD-1 mice [1]): 96.9
Reduction of Erythema (%) (human volunteers [6]; 0.1%): −3%
Reduction of Erythema (%) (human volunteers [6]; 1%): 14%

COc1ccc(-n2nc(CCC(=O)N(C)O)cc2-c2ccc(Cl)cc2)cc1 [Tepoxalin]
Arachidonic acid induced ear edema % Inhibition (Albino male CD-1 mice [7]; 0.1% topical): 10.84%
Arachidonic acid induced ear edema % Inhibition (Albino male CD-1 mice [7]; 1.0% topical): 42.38%
Arachidonic acid induced ear edema % Inhibition (Albino male CD-1 mice [7]; 2.0% topical): 61.06%
